Test results published in US8853215B2, “Derivatives of N-acyl-N′-phenylpiperazine useful (inter alia) for the prophylaxis or treatment of diabetes” (Takeda Pharmaceutical Company Limited, priority 2009, dated 2014).

What was measured:
human RBP4 = human RBP4 (Homo sapiens (Human), UniProt P02753); assay: Binding assay by Retinol-RBP4-TTR ELISA; conditions: for IC50: retinol 50 nM, His-tagged human RBP4, biotinylated human TTR, read-out: human RBP4 binding inhibitory activity (IC50 nM)
Procedure, shortened: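 Biotinylated human TTR was captured on streptavidin plates, then His-tagged human RBP4 was added with compound premixed with 50 nM retinol (8 doses). Binding ran 2 h at room temperature in 50 mM Tris-HCl, 150 mM NaCl, 0.005% Tween 20, 1 mM DTT, 0.1% BSA, read by luminescence. Inhibition was scaled between retinol+DMSO and retinol-free controls, and IC50 fitted.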

RBP4 = RBP4 (Rattus norvegicus (Rat), UniProt P04916); assay: Single administration test in Wistar fatty rats, plasma RBP4 by ELISA; assay type: in vivo; conditions: male Wistar fatty rats, 10 mg/kg oral single dose, mean±SD; for RBP4 (% of initial/Control) 0 hr: 0 hr (just before the administration); for RBP4 (% of initial/Control) 4 hr: 4 hr after administration; for RBP4 (% of initial/Control) 7 hr: 7 hr after administration; for RBP4 (% of initial/Control) 24 hr: 24 hr after administration
Experimental: The action of the compounds of the present invention to lower plasma RBP4 level was evaluated using the animal model shown below.
(§1) Male Wistar fatty rats (fa/fa) were bred in Takeda Pharmaceutical Company Limited and maintained on normal diet (CE2, CLAE Japan, Inc.) and tap water. Animals were housed in a temperature-controlled room adjusted to a 12-hour light/12-hour dark cycle beginning at 7:00 and 19:00, respectively. All procedures were conducted according to the experimental animal care use committee of Takeda Pharmaceutical Company.
Male 13-43-week-old Wistar fatty rats were divided into groups randomly. Compounds were suspended in 0.5% (w/v) methylcellulose in water and given orally to Wistar fatty rats at a dose of 10 mg/10 mL/kg of body weight (3-5 rats per group). Blood samples were obtained from tail vein with sodium heparin as an anticoagulant at time 0 hr (just before the administration), 4 hr, 7 hr, and 24 hr after the administration, followed by plasma separation by centrifugation. Plasma RBP4 levels were measured by enzyme-linked immunosorbent assay described in the following section.
Plasma samples were analyzed in duplicate for RBP4 by an enzyme-linked immunosorbent assay. Mouse recombinant RBP4 (Takeda Pharmaceutical Company Limited) was used as standards, and the assay range was 0.313-20 ng/ml. Samples were diluted 10,000-fold with phosphate-buffered saline (PBS) (Sigma) containing 10% (w/v) BlockAce (Dainippon Sumitomo Pharma Co., Ltd). Rabbit anti-RBP4 polyclonal antibody (100 μL/well of 50 μg/mL, Hokudo Co, Ltd) was incubated in a 96-well plate (Nalge Nunc International K.K.) for overnight at 4° C. Subsequently, the plates were washed with PBS-T (Wako Pure Chemical Industries, Ltd.) and blocked with PBS containing 25% BlockAce for 1 hr at room temperature. After another washing with PBS-T, samples and standards were applied to the well, and the plates were incubated for 2 hr at room temperature. After a washing the wells, peroxidase-labeled (Dojindo Laboratories) anti-RBP4 (100 μL/well) was added to the wells, and then the plates were incubated for 1 hr at room temperature. After a final washing with PBS-T, substrate solution 3,3,5,5-tetramethylbenzidine (Sigma) was added to the wells, and the plates were placed in the dark for 5-20 min at room temperature. The reaction was stopped with 0.5 M sulphuric acid and the optical density was measured with a spectrophotometer at 450 nm. The changes in plasma RBP4 levels were expressed as % of initial/Control. All data are presented as mean±SD.

Zucker fatty rats = assay: Repeated drug administration test in Zucker fatty rats, plasma glucose and glycosylated hemoglobin; assay type: in vivo, Zucker fatty rats (fa/fa)
Experimental: The effect of the compound of the present invention on plasma levels of glucose and glycosylated hemoglobin were evaluated using the animal model shown below.
as §1, with “Zucker” for “Wistar”, “(fa/fa) and their lean littermates (Fa/?)” for “(fa/fa)”, “Company Limited.” for “Company.”
From 8 weeks of age, Zucker fatty rats were maintained on a high fat diet (D06110702, 20 kCal % fat) (LSG Corporation, Japan). A compound was suspended in 0.5% (w/v) methylcellulose in water and given orally to rats at a volume of 5 mL/kg of body weight. After 4 days of pre-administration of 0.5% (w/v) methylcellulose, rats were divided based on body weight, glycosylated hemoglobin, and plasma glucose (PG) (n=6 each). Drug administration was started at 15 weeks of age and a drug (10 mg/kg) was administered once a day for 28 days.
Before and 28 days after the administration, blood samples were obtained from tail vein with sodium heparin as an anticoagulant, followed by plasma separation by centrifugation. Plasma glucose (PG) levels were measured enzymatically by an Autoanalyzer 7180 (Hitachi, Japan). Glycosylated hemoglobin levels were analyzed by a high performance liquid chromatography-based method using an automated analyzer HLC-723 or HLC-723 G7 (Tosoh, Japan). The changes in glycosylated hemoglobin were calculated by subtracting the initial value from final value.

CD (SD) rats = assay: Repeated drug administration test in CD (SD) rats, retinol in plasma and retina by HPLC; assay type: in vivo
Experimental: The effect of the compound on retinol level in retina was evaluated using the animal model shown below.
as §1, with “CD (SD)” for “Wistar fatty”, “rats” for “rats (fa/fa)”, “purchased from Charles River (Japan)” for “bred in Takeda Pharmaceutical Company Limited”, “(CR-LPF) (Oriental Yeast Co., Ltd.)” for “(CE2, CLAE Japan, Inc.)”
A compound was suspended in 0.5% (w/v) methylcellulose in water and given orally to rats at a volume of 10 mL/kg of body weight. Drug administration was started at 6 weeks of age and a drug (10 mg/kg) was administered once a day for 14 days. After repeated administration, blood samples were obtained from tail vein. Rats were dissected under anesthesia with ethyl ether and eyes were isolated.
Retina was isolated from the eye of the rats mentioned 5B with stereoscopic microscope and sonicated. Retinol was extracted into n-hexane and samples were taken to dryness under nitrogen gas. Samples residues were resuspended into 2-propanol and analyzed by HPLC. Chromatographic separations were achieved on TSKgel ODS120T Column (4.6×250 mm) (Tosoh) using Alliance series reverse phase HPLC (Waters). The mobile phase contained acetonitrile/methanol (3/1) at 4° C. and detected at UV 325 nm. Retinol in retina was corrected by total protein detected by BCA protein assay (Pierce).

[1] = Zucker fatty rats, 10 mg/kg, 28 days repeated administration

SMILES | IC50 (human RBP4) | RBP4 (% of initial/Control) 0 hr (RBP4) | RBP4 (% of initial/Control) 4 hr (RBP4) | RBP4 (% of initial/Control) 7 hr (RBP4) | RBP4 (% of initial/Control) 24 hr (RBP4) | inhibition at 10 µM (human RBP4; at 10 μM compound, read-out: human RBP4 binding inhibitory activity(% at 10 μM)) | Glycosylated hemoglobin (%) (Zucker fatty rats; Zucker fatty rats on high fat diet, 10 mg/kg oral once a day for 28 days, change = final minus initial value, mean±SD) | PG (% of initial/Vehicle) (Zucker fatty rats; Zucker fatty rats on high fat diet, 10 mg/kg oral once a day for 28 days, plasma glucose, mean±SD) | effect on PG (in words) (Zucker fatty rats; [1]) | effect on glycosylated hemoglobin (in words) (Zucker fatty rats; [1]) | effect on retinol in plasma and retina (in words) (CD (SD) rats; CD (SD) rats, 10 mg/kg, 14 days repeated administration) | Retinol in retina (CD (SD) rats; male CD (SD) rats, 10 mg/kg oral once a day for 14 days, corrected by total protein, mean±SD) | Retinol in plasma (μg/mL) (CD (SD) rats; male CD (SD) rats, 10 mg/kg oral once a day for 14 days, mean±SD)
CC(C)(C)c1ccccc1N1CCN(C(=O)NCC(=O)O)CC1 [Example 6, N-{[4-(2-tert-Butylphenyl)piperazin-1-yl]carbonyl}glycine] | 540 nM | 100 ± 14.1 % of initial/Control | 36.2 ± 5.0 % of initial/Control | 27.4 ± 5.9 % of initial/Control | 104.5 ± 4.4 % of initial/Control | – | 0.95 ± 0.67% | 70.0 ± 19.7 % of initial/Vehicle | decreased PG significantly | tended to decrease glycosylated hemoglobin (not significant) | – | – | –
O=C(O)CCc1nc(-c2cc(C(F)(F)F)cc(C(F)(F)F)c2)co1 [Reference Example 26, 3-{4-[3,5-bis(trifluoromethyl)phenyl]-1,3-oxazol-2-yl}propanoic acid, reference compound] | – | 100 ± 22.9 % of initial/Control | 34.7 ± 13.7 % of initial/Control | 24.9 ± 10.6 % of initial/Control | 9.2 ± 6.1 % of initial/Control | 100% | – | – | – | – | decreased retinol in plasma and retina significantly | 0.06 ± 0.01 µg/mg | Not detected

Second part, led by results:

IC50 (human RBP4) | RBP4 (% of initial/Control) 0 hr (RBP4) | RBP4 (% of initial/Control) 4 hr (RBP4) | RBP4 (% of initial/Control) 7 hr (RBP4) | RBP4 (% of initial/Control) 24 hr (RBP4) | inhibition at 10 µM (human RBP4; at 10 μM compound, read-out: human RBP4 binding inhibitory activity(% at 10 μM)) | SMILES | Glycosylated hemoglobin (%) (Zucker fatty rats; Zucker fatty rats on high fat diet, 10 mg/kg oral once a day for 28 days, change = final minus initial value, mean±SD) | PG (% of initial/Vehicle) (Zucker fatty rats; Zucker fatty rats on high fat diet, 10 mg/kg oral once a day for 28 days, plasma glucose, mean±SD) | effect on PG (in words) (Zucker fatty rats; [1]) | effect on glycosylated hemoglobin (in words) (Zucker fatty rats; [1]) | effect on retinol in plasma and retina (in words) (CD (SD) rats; CD (SD) rats, 10 mg/kg, 14 days repeated administration) | Retinol in retina (CD (SD) rats; male CD (SD) rats, 10 mg/kg oral once a day for 14 days, corrected by total protein, mean±SD) | Retinol in plasma (μg/mL) (CD (SD) rats; male CD (SD) rats, 10 mg/kg oral once a day for 14 days, mean±SD)
54 nM | 100.0 ± 8.5 % of initial/Control | 49.6 ± 1.3 % of initial/Control | 49.2 ± 1.9 % of initial/Control | 114.3 ± 6.0 % of initial/Control | – | CC(C)(C)c1ccccc1N1CCN(C(=O)CC(=O)O)CC1 [Example 9, 3-[4-(2-tert-Butylphenyl)piperazin-1-yl]-3-oxopropanoic acid] | – | – | – | – | – | – | –
64 nM | 100.0 ± 5.3 % of initial/Control | 36.8 ± 5.8 % of initial/Control | 31.6 ± 7.7 % of initial/Control | 54.4 ± 14.3 % of initial/Control | – | CC(C)(C)c1ccccc1N1CCN(C(=O)CCC(=O)NS(C)(=O)=O)CC1 [Example 55, 4-(4-(2-tert-Butylphenyl)piperazin-1-yl)-N-(methylsulfonyl)-4-oxobutanamide] | – | – | – | – | – | – | –
300 nM | 100.0 ± 8.7 % of initial/Control | 76.2 ± 11 % of initial/Control | 89.1 ± 15.4 % of initial/Control | 97.9 ± 10.4 % of initial/Control | – | CC(C)(C)c1ccccc1N1CCN(C(=O)Cc2nnn[nH]2)CC1 [Example 58, 1-(4-(2-tert-Butylphenyl)piperazin-1-yl)-2-(1H-tetrazol-5-yl)ethanone] | – | – | – | – | – | – | –
